Results reported in article PMC5127132 (2016).

Legend:
[1] = tested on: A08min (DNA, aptamer) GGCAGTGTGGGCGAATCTATGCGTACCGTTCGATATCGTG; experiment: SYBR Green I displacement; conditions: 137 mM NaCl, 2.7 mM KCl; 10 mM Na2HPO4, 2 mM KH2PO4, pH 7.4; OTA 0.2 to 70 nM
[2] = tested on: H12 (5'-FAM) (DNA, aptamer) GGGAGGACGAAGCGGAACCGGGTGTGGGTGCCTTGATCCAGGGAGTCTCAGAAGACACGCCCGACA; experiment: microscale thermophoresis; conditions: 137 mM NaCl, 2.7 mM KCl, 1 mM MgCl2; 10 mM Na2HPO4, 2 mM KH2PO4, pH 7.4, 25 °C
[3] = tested on: A08 (5'-FAM) (DNA, aptamer) AGCCTCGTCTGTTCTCCCGGCAGTGTGGGCGAATCTATGCGTACCGTTCGATATCGTGGGGAAGACAAGCAGACGT; experiment: microscale thermophoresis; conditions: 137 mM NaCl, 2.7 mM KCl; 10 mM Na2HPO4, 2 mM KH2PO4, pH 7.4, 25 °C
[4] = tested on: A08 (DNA, aptamer) AGCCTCGTCTGTTCTCCCGGCAGTGTGGGCGAATCTATGCGTACCGTTCGATATCGTGGGGAAGACAAGCAGACGT; experiment: gold nanoparticle aggregation; conditions: 0.5 M NaCl added last; in water; OTA 0.2 to 70 nM
[5] = tested on: A08min (5'-FAM) (DNA, aptamer) GGCAGTGTGGGCGAATCTATGCGTACCGTTCGATATCGTG; experiment: microscale thermophoresis; conditions: 137 mM NaCl, 2.7 mM KCl; 10 mM Na2HPO4, 2 mM KH2PO4, pH 7.4, 25 °C
[6] = tested on: 1.12.2 (DNA, aptamer) GATCGGGTGTGGGTGGCGTAAAGGGAGCATCGGACA; experiment: SYBR Green I displacement; conditions: 120 mM NaCl, 5 mM KCl, 10 mM CaCl2; 10 mM HEPES, pH 7.0; OTA 0.2 to 70 nM
[7] = tested on: A08 (DNA, aptamer) AGCCTCGTCTGTTCTCCCGGCAGTGTGGGCGAATCTATGCGTACCGTTCGATATCGTGGGGAAGACAAGCAGACGT; experiment: SYBR Green I displacement; conditions: 137 mM NaCl, 2.7 mM KCl; 10 mM Na2HPO4, 2 mM KH2PO4, pH 7.4; OTA 0.2 to 70 nM
[8] = tested on: H8 (5'-FAM) (DNA, aptamer) GGGAGGACGAAGCGGAACTGGGTGTGGGGTGATCAAGGGAGTAGACTACAGAAGACACGCCCGACA; experiment: microscale thermophoresis; conditions: 137 mM NaCl, 2.7 mM KCl, 1 mM MgCl2; 10 mM Na2HPO4, 2 mM KH2PO4, pH 7.4, 25 °C
[9] = tested on: 1.12.2 (DNA, aptamer) GATCGGGTGTGGGTGGCGTAAAGGGAGCATCGGACA; experiment: gold nanoparticle aggregation; conditions: 0.5 M NaCl added last; in water; OTA 0.2 to 70 nM
[10] = tested on: A08min (DNA, aptamer) GGCAGTGTGGGCGAATCTATGCGTACCGTTCGATATCGTG; experiment: gold nanoparticle aggregation; conditions: 0.5 M NaCl added last; in water; OTA 0.2 to 70 nM
[11] = tested on: 1.12.2 (5'-FAM) (DNA, aptamer) GATCGGGTGTGGGTGGCGTAAAGGGAGCATCGGACA; experiment: microscale thermophoresis (raw fluorescence, quenching); conditions: 120 mM NaCl, 5 mM KCl, 10 mM CaCl2; 10 mM HEPES, pH 7.0, 25 °C; raw fluorescence quenching analysed, may have skewed KD

binding [1]: yes | KD [2]: 629.5 ± 79.7 nM | KD [3]: 232.6 ± 80.6 nM | binding [4]: yes | KD [5]: 96.5 ± 33.3 nM | binding [6]: yes | binding [7]: yes | KD [8]: 416.1 ± 119.0 nM | binding [9]: yes | binding [10]: yes | KD [11]: 524.8 ± 147.8 nM
SMILES: C[C@@H]1Cc2c(Cl)cc(C(=O)N[C@@H](Cc3ccccc3)C(=O)O)c(O)c2C(=O)O1
